{"source": "patent US6914045B2", "about": "“Glycopeptide antibiotics” (Wyeth Holdings Corporation, priority 2001, dated 2005)", "experiment_in_all_cases": "in vitro antibacterial evaluation, MIC by broth dilution", "format_in_all_cases": "cell-based", "key": {"Enterococcus sp.": {"test_system": "Enterococcus sp.", "settings": "broth dilution, 18 hours at 35° C.", "method_in_brief": "(§1)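 Test organisms, which included recent clinical isolates resistant to methicillin, penicillin and/or vancomycin, were inoculated at 5×10^5 CFU/mL into Muller-Hinton II […] containing antibiotic at 64-0.06 μg/mL. Minimum inhibitory concentrations were then read as the lowest level inhibiting growth.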"}, "Escherichia coli": {"test_system": "Escherichia coli", "settings": "18 hours at 35° C.", "method_in_brief": "as §1"}, "Streptococcus sp.": {"test_system": "Streptococcus sp.", "settings": "broth dilution, 18 hours at 35° C.", "method_in_brief": "as §1"}, "Staphylococcus sp.": {"test_system": "Staphylococcus sp.", "settings": "broth dilution, 18 hours at 35° C.", "method_in_brief": "as §1"}}}
{"compound": "CC(c1ccccc1)C1NC(=O)CNC(=O)C(CO)NC(=O)C(C(O)C2CNC(=N)N2C2OC(CO)C(O)C(O)C2O)NC(=O)C(C(O)C2CNC(=N)N2)NC(=O)C(Cc2ccc(OC3OC(CO)C(OC4OC5COC(Cc6ccc(Br)cc6)OC5C(O)C4O)C(O)C3O)cc2)NC1=O", "note": "(stereo not drawn) [Example 118, Cyclo[glycyl-β-methylphenylalanyl-O-[4-O-[4,6-O-(4-bromophenethylidene)hexopyranosyl]-hexopyranosyl]tyrosyl-3-(2-iminoimidazolidin-4-yl)seryl-3-(3-hexopyranosyl-2-iminoimidazolidin-4-yl)serylseryl]]", "values": [{"measurement": "MIC Enterococcus avium (GC 4558)", "setting": "Enterococcus sp.; Enterococcus avium (GC 4558)", "result": "1 to 2", "unit": "µg/mL"}, {"measurement": "MIC Enterococcus faecalis (ATCC 29212)", "setting": "Enterococcus sp.; Enterococcus faecalis (ATCC 29212)", "result": "1 to 2", "unit": "µg/mL"}, {"measurement": "MIC Enterococcus faecalis (GC 2242)", "setting": "Enterococcus sp.; Enterococcus faecalis (GC 2242)", "result": "<0.5 to 2", "unit": "µg/mL"}, {"measurement": "MIC Enterococcus faecalis (GC 2691)", "setting": "Enterococcus sp.; Enterococcus faecalis (GC 2691)", "result": "1 to 2", "unit": "µg/mL"}, {"measurement": "MIC Enterococcus faecalis (GC 3059)", "setting": "Enterococcus sp.; Enterococcus faecalis (GC 3059)", "result": "1 to 2", "unit": "µg/mL"}, {"measurement": "MIC Enterococcus faecalis (GC 4552)", "setting": "Enterococcus sp.; Enterococcus faecalis (GC 4552)", "result": "1 to 2", "unit": "µg/mL"}, {"measurement": "MIC Enterococcus faecalis (GC 4553)", "setting": "Enterococcus sp.; Enterococcus faecalis (GC 4553)", "result": "1 to 2", "unit": "µg/mL"}, {"measurement": "MIC Enterococcus faecalis (GC 4554)", "setting": "Enterococcus sp.; Enterococcus faecalis (GC 4554)", "result": "1 to 2", "unit": "µg/mL"}, {"measurement": "MIC Enterococcus faecalis (GC 6189)", "setting": "Enterococcus sp.; Enterococcus faecalis (GC 6189)", "result": "1 to 2", "unit": "µg/mL"}, {"measurement": "MIC Enterococcus faecium (GC 2243)", "setting": "Enterococcus sp.; Enterococcus faecium (GC 2243)", "result": 1, "unit": "µg/mL"}, {"measurement": "MIC Enterococcus faecium (GC 4556)", "setting": "Enterococcus sp.; Enterococcus faecium (GC 4556)", "result": "<0.5 to 1", "unit": "µg/mL"}, {"measurement": "MIC Enterococcus faecium (GC 4557)", "setting": "Enterococcus sp.; Enterococcus faecium (GC 4557)", "result": "<0.5 to 2", "unit": "µg/mL"}, {"measurement": "MIC Enterococcus faecalis (ATCC 29212)", "setting": "Enterococcus sp.; strain ATCC 29212", "result": "1 to 2", "unit": "µg/mL"}, {"measurement": "MIC Enterococcus faecalis (GC 2242)", "setting": "Enterococcus sp.; strain GC 2242", "result": "<0.5 to 2", "unit": "µg/mL"}, {"measurement": "MIC Enterococcus faecium (GC 2243)", "setting": "Enterococcus sp.; strain GC 2243", "result": 1, "unit": "µg/mL"}, {"measurement": "MIC Enterococcus faecalis (GC 2691)", "setting": "Enterococcus sp.; strain GC 2691", "result": "1 to 2", "unit": "µg/mL"}, {"measurement": "MIC Enterococcus faecalis (GC 3059)", "setting": "Enterococcus sp.; strain GC 3059", "result": "1 to 2", "unit": "µg/mL"}, {"measurement": "MIC Enterococcus faecalis (GC 4552)", "setting": "Enterococcus sp.; strain GC 4552", "result": "1 to 2", "unit": "µg/mL"}, {"measurement": "MIC Enterococcus faecalis (GC 4553)", "setting": "Enterococcus sp.; strain GC 4553", "result": "1 to 2", "unit": "µg/mL"}, {"measurement": "MIC Enterococcus faecalis (GC 4554)", "setting": "Enterococcus sp.; strain GC 4554", "result": "1 to 2", "unit": "µg/mL"}, {"measurement": "MIC Enterococcus faecium (GC 4556)", "setting": "Enterococcus sp.; strain GC 4556", "result": "<0.5 to 1", "unit": "µg/mL"}, {"measurement": "MIC Enterococcus faecium (GC 4557)", "setting": "Enterococcus sp.; strain GC 4557", "result": "<0.5 to 2", "unit": "µg/mL"}, {"measurement": "MIC Enterococcus avium (GC 4558)", "setting": "Enterococcus sp.; strain GC 4558", "result": "1 to 2", "unit": "µg/mL"}, {"measurement": "MIC Enterococcus faecalis (GC 6189)", "setting": "Enterococcus sp.; strain GC 6189", "result": "1 to 2", "unit": "µg/mL"}, {"measurement": "MIC Escherichia coli (ATCC 25922)", "setting": "Escherichia coli; strain ATCC 25922", "result": "16 to 32", "unit": "µg/mL"}, {"measurement": "MIC Escherichia coli (GC 4559)", "setting": "Escherichia coli; strain GC 4559", "result": 16, "unit": "µg/mL"}, {"measurement": "MIC Escherichia coli (GC 4560)", "setting": "Escherichia coli; strain GC 4560", "result": 1, "unit": "µg/mL"}, {"measurement": "MIC Streptococcus agalactiae (GC 4564)", "setting": "Streptococcus sp.; Streptococcus agalactiae (GC 4564)", "result": "<0.06", "unit": "µg/mL"}, {"measurement": "MIC Streptococcus pneumoniae (ATCC 6301)", "setting": "Streptococcus sp.; Streptococcus pneumoniae (ATCC 6301)", "result": "<0.06", "unit": "µg/mL"}, {"measurement": "MIC Streptococcus pneumoniae (GC 1894)", "setting": "Streptococcus sp.; Streptococcus pneumoniae (GC 1894)", "result": "<0.06", "unit": "µg/mL"}, {"measurement": "MIC Streptococcus pneumoniae (GC 4565)", "setting": "Streptococcus sp.; Streptococcus pneumoniae (GC 4565)", "result": "<0.06", "unit": "µg/mL"}, {"measurement": "MIC Streptococcus pyogenes (GC 4563)", "setting": "Streptococcus sp.; Streptococcus pyogenes (GC 4563)", "result": "<0.06", "unit": "µg/mL"}, {"measurement": "MIC Streptococcus pneumoniae (ATCC 6301)", "setting": "Streptococcus sp.; strain ATCC 6301", "result": "<0.06", "unit": "µg/mL"}, {"measurement": "MIC Streptococcus pneumoniae (GC 1894)", "setting": "Streptococcus sp.; strain GC 1894", "result": "<0.06", "unit": "µg/mL"}, {"measurement": "MIC Streptococcus pyogenes (GC 4563)", "setting": "Streptococcus sp.; strain GC 4563", "result": "<0.06", "unit": "µg/mL"}, {"measurement": "MIC Streptococcus agalactiae (GC 4564)", "setting": "Streptococcus sp.; strain GC 4564", "result": "<0.06", "unit": "µg/mL"}, {"measurement": "MIC Streptococcus pneumoniae (GC 4565)", "setting": "Streptococcus sp.; strain GC 4565", "result": "<0.06", "unit": "µg/mL"}, {"measurement": "MIC Coagulase Negative Staphylococcus (GC 4547)", "setting": "Staphylococcus sp.", "result": "<0.5 to 1", "unit": "µg/mL"}, {"measurement": "MIC Coagulase Negative Staphylococcus (GC 4548)", "setting": "Staphylococcus sp.", "result": "0.25-0.25 μg/mL"}, {"measurement": "MIC Coagulase Negative Staphylococcus (GC 4551)", "setting": "Staphylococcus sp.", "result": "<0.5 to 1", "unit": "µg/mL"}, {"measurement": "MIC Coagulase Negative Staphylococcus (GC 6257)", "setting": "Staphylococcus sp.", "result": "0.25-0.25 μg/mL"}, {"measurement": "MIC Staphylococcus aureus (ATCC 29213)", "setting": "Staphylococcus sp.", "result": "<0.5 to 1", "unit": "µg/mL"}, {"measurement": "MIC Staphylococcus aureus (GC 1131)", "setting": "Staphylococcus sp.", "result": "<0.5 to 1", "unit": "µg/mL"}, {"measurement": "MIC Staphylococcus aureus (GC 3051)", "setting": "Staphylococcus sp.", "result": "<0.5 to 1", "unit": "µg/mL"}, {"measurement": "MIC Staphylococcus aureus (GC 3053)", "setting": "Staphylococcus sp.", "result": 1, "unit": "µg/mL"}, {"measurement": "MIC Staphylococcus aureus (GC 4541)", "setting": "Staphylococcus sp.", "result": "<0.5 to 1", "unit": "µg/mL"}, {"measurement": "MIC Staphylococcus aureus (GC 4542)", "setting": "Staphylococcus sp.", "result": "<0.5 to 1", "unit": "µg/mL"}, {"measurement": "MIC Staphylococcus aureus (GC 4544)", "setting": "Staphylococcus sp.", "result": "<0.5 to 1", "unit": "µg/mL"}, {"measurement": "MIC Staphylococcus aureus (GC 4545)", "setting": "Staphylococcus sp.", "result": "<0.5 to 1", "unit": "µg/mL"}, {"measurement": "MIC Staphylococcus aureus-SMITH (GC 4543)", "setting": "Staphylococcus sp.", "result": "<0.5 to 1", "unit": "µg/mL"}, {"measurement": "MIC Staphylococcus aureus (GC 1131)", "setting": "Staphylococcus sp.; inoculum 5×10^5 CFU/mL, strain GC 1131", "result": "<0.5 to 1", "unit": "µg/mL"}, {"measurement": "MIC Staphylococcus aureus (ATCC 29213)", "setting": "Staphylococcus sp.; strain ATCC 29213", "result": "<0.5 to 1", "unit": "µg/mL"}, {"measurement": "MIC Staphylococcus aureus (GC 3051)", "setting": "Staphylococcus sp.; strain GC 3051", "result": "<0.5 to 1", "unit": "µg/mL"}, {"measurement": "MIC Staphylococcus aureus (GC 3053)", "setting": "Staphylococcus sp.; strain GC 3053", "result": 1, "unit": "µg/mL"}, {"measurement": "MIC Staphylococcus aureus (GC 4541)", "setting": "Staphylococcus sp.; strain GC 4541", "result": "<0.5 to 1", "unit": "µg/mL"}, {"measurement": "MIC Staphylococcus aureus (GC 4542)", "setting": "Staphylococcus sp.; strain GC 4542", "result": "<0.5 to 1", "unit": "µg/mL"}, {"measurement": "MIC Staphylococcus aureus (GC 4544)", "setting": "Staphylococcus sp.; strain GC 4544", "result": "<0.5 to 1", "unit": "µg/mL"}, {"measurement": "MIC Staphylococcus aureus (GC 4545)", "setting": "Staphylococcus sp.; strain GC 4545", "result": "<0.5 to 1", "unit": "µg/mL"}, {"measurement": "MIC Coagulase Negative Staphylococcus (GC 4547)", "setting": "Staphylococcus sp.; strain GC 4547", "result": "<0.5 to 1", "unit": "µg/mL"}, {"measurement": "MIC Coagulase Negative Staphylococcus (GC 4548)", "setting": "Staphylococcus sp.; strain GC 4548", "result": "0.25-0.25 μg/mL"}, {"measurement": "MIC Coagulase Negative Staphylococcus (GC 4551)", "setting": "Staphylococcus sp.; strain GC 4551", "result": "<0.5 to 1", "unit": "µg/mL"}, {"measurement": "MIC Coagulase Negative Staphylococcus (GC 6257)", "setting": "Staphylococcus sp.; strain GC 6257", "result": "0.25-0.25 μg/mL"}, {"measurement": "MIC Staphylococcus aureus-SMITH (GC 4543)", "setting": "Staphylococcus sp.; strain SMITH GC 4543", "result": "<0.5 to 1", "unit": "µg/mL"}]}
